Tests used:
Assay in all cases: NCI60 antitumor screening
Assay type in all cases: cell-based, human
MDA-MB-468 = conditions: Homo sapiens; 10 μM single dose; MDA-MB-468 (breast cancer); read-out: growth inhibition percent (GI%)
HT29 = conditions: Homo sapiens, HT-29; 10 μM single dose; HT29 (colon cancer); read-out: growth inhibition percent (GI%)
SF-268 = conditions: Homo sapiens; 10 μM single dose; SF-268 (CNS cancer); read-out: growth inhibition percent (GI%)
NCI-H460 = conditions: Homo sapiens; 10 μM single dose; NCI-H460 (non-small cell lung cancer); read-out: growth inhibition percent (GI%)
A498 = conditions: Homo sapiens; 10 μM single dose; A498 (renal cancer); read-out: growth inhibition percent (GI%)
MOLT-4 = conditions: Homo sapiens; 10 μM single dose; MOLT-4 (leukaemia); read-out: growth inhibition percent (GI%)
SF-295 = conditions: Homo sapiens; 10 μM single dose; SF-295 (CNS cancer); read-out: growth inhibition percent (GI%)
SK-MEL-5 = conditions: Homo sapiens; 10 μM single dose; SK-MEL-5 (melanoma); read-out: growth inhibition percent (GI%)
HCT-116 = conditions: Homo sapiens; 10 μM single dose; HCT-116 (colon cancer); read-out: growth inhibition percent (GI%)
HL-60(TB) = conditions: Homo sapiens; 10 μM single dose; HL-60(TB) (leukaemia); read-out: growth inhibition percent (GI%)
A549/ATCC = conditions: Homo sapiens; 10 μM single dose; A549/ATCC (non-small cell lung cancer); read-out: growth inhibition percent (GI%)
OVCAR-4 = conditions: for inhibition at 10 µM: Homo sapiens, 10 μM single dose, OVCAR-4 (ovarian cancer), read-out: growth inhibition percent (GI%)
M14 = conditions: Homo sapiens; 10 μM single dose; M14 (melanoma); read-out: growth inhibition percent (GI%)
LOX IMVI = conditions: Homo sapiens; 10 μM single dose; LOX IMVI (melanoma); read-out: growth inhibition percent (GI%)
CCRF-CEM = conditions: Homo sapiens; 10 μM single dose; CCRF-CEM (leukaemia); read-out: growth inhibition percent (GI%)
U251 = conditions: Homo sapiens, U-251; 10 μM single dose; U251 (CNS cancer); read-out: growth inhibition percent (GI%)
MDA-MB-435 = conditions: Homo sapiens; 10 μM single dose; MDA-MB-435 (melanoma); read-out: growth inhibition percent (GI%)
SR = conditions: for inhibition at 10 µM: Homo sapiens, 10 μM single dose, SR (leukaemia), read-out: growth inhibition percent (GI%)
NCI/ADR-RES = conditions: Homo sapiens; 10 μM single dose; NCI/ADR-RES (ovarian cancer); read-out: growth inhibition percent (GI%)
SK-MEL-28 = conditions: Homo sapiens; 10 μM single dose; SK-MEL-28 (melanoma); read-out: growth inhibition percent (GI%)
MDA-MB-231/ATCC = conditions: Homo sapiens; 10 μM single dose; MDA-MB-231/ATCC (breast cancer); read-out: growth inhibition percent (GI%)
786–0 = conditions: for inhibition at 10 µM: Homo sapiens, 10 μM single dose, 786–0 (renal cancer), read-out: growth inhibition percent (GI%)
SF-539 = conditions: for inhibition at 10 µM: Homo sapiens, 10 μM single dose, SF-539 (CNS cancer), read-out: growth inhibition percent (GI%)
PC-3 = conditions: Homo sapiens; 10 μM single dose; PC-3 (prostate cancer); read-out: growth inhibition percent (GI%)
OVCAR-3 = conditions: Homo sapiens; 10 μM single dose; OVCAR-3 (ovarian cancer); read-out: growth inhibition percent (GI%)
K-562 = conditions: for inhibition at 10 µM: Homo sapiens, 10 μM single dose, (leukaemia), read-out: growth inhibition percent (GI%)
BT-549 = conditions: Homo sapiens; 10 μM single dose; BT-549 (breast cancer); read-out: growth inhibition percent (GI%)

SMILES | inhibition at 10 µM (MDA-MB-468) [%] | inhibition at 10 µM (HT29) [%] | inhibition at 10 µM (SF-268) [%] | inhibition at 10 µM (NCI-H460) [%] | inhibition at 10 µM (A498) [%] | inhibition at 10 µM (MOLT-4) [%] | inhibition at 10 µM (SF-295) [%] | inhibition at 10 µM (SK-MEL-5) [%] | inhibition at 10 µM (HCT-116) [%] | inhibition at 10 µM (HL-60(TB)) [%] | inhibition at 10 µM (A549/ATCC) [%] | inhibition at 10 µM (OVCAR-4) [%] | inhibition at 10 µM (M14) [%] | inhibition at 10 µM (LOX IMVI) [%] | inhibition at 10 µM (CCRF-CEM) [%] | inhibition at 10 µM (U251) [%] | inhibition at 10 µM (MDA-MB-435) [%] | inhibition at 10 µM (SR) [%] | inhibition at 10 µM (NCI/ADR-RES) [%] | inhibition at 10 µM (SK-MEL-28) [%] | further results
N#Cc1c(-c2ccc(F)cc2)nc(SCc2ccc([N+](=O)[O-])cc2)nc1N1CCNCC1 [4g, 4-(4-Fluorophenyl)-2-((4-nitrobenzyl)thio)-6-(piperazin-1-yl) pyrimidine-5-carbonitrile] | < 10 | < 10 | < 10 | < 10 | < 10 | < 10 | < 10 | < 10 | < 10 | < 10 | < 10 | < 10 | < 10 | < 10 | < 10 | < 10 | < 10 | < 10 | < 10 | < 10 | inhibition at 10 µM (MDA-MB-231/ATCC): < 10%; inhibition at 10 µM (786–0): < 10%; inhibition at 10 µM (SF-539): < 10%; inhibition at 10 µM (PC-3): < 10%; inhibition at 10 µM (OVCAR-3): < 10%; inhibition at 10 µM (K-562): < 10%; inhibition at 10 µM (BT-549): < 10%
Cc1ccc(CSc2nc(-c3ccc(F)cc3)c(C#N)c(N3CCN(C)CC3)n2)cc1 [4l, 4-(4-Fluorophenyl)-2-((4-methylbenzyl)thio)-6-(4-methylpiperazin-1-yl) pyrimidine-5-carbonitrile] | < 10 | 10.6 | < 10 | < 10 | < 10 | 10.5 | 17.6 | < 10 | 13.1 | 12.2 | 13.1 | < 10 | < 10 | 12.8 | 15.2 | < 10 | < 10 | < 10 | 12.7 | < 10 | inhibition at 10 µM (MDA-MB-231/ATCC): 28.9%; inhibition at 10 µM (786–0): 44.2%; inhibition at 10 µM (SF-539): 31.8%; inhibition at 10 µM (PC-3): 24.2%; inhibition at 10 µM (OVCAR-3): < 10%; inhibition at 10 µM (K-562): 28.6%; inhibition at 10 µM (BT-549): 10.8%
CN1CCN(c2nc(SCc3ccc(F)cc3)nc(-c3ccc(F)cc3)c2C#N)CC1 [4j, 2-((4-Fluorobenzyl)thio)-4-(4-fluorophenyl)-6-(4-methylpiperazin-1-yl)pyrimidine-5-carbonitrile] | 23.6 | < 10 | 15.8 | < 10 | < 10 | < 10 | 56.8 | < 10 | 25.3 | < 10 | 27.7 | 24.1 | 10.4 | 22.9 | < 10 | 26.2 | < 10 | < 10 | 42.9 | 16.2 | GI% (OVCAR-4; 10 μM one-dose, Table 1): — (GI value > 70%); GI% (SR; 10 μM one-dose, Table 1): — (GI value > 70%); inhibition at 10 µM (MDA-MB-231/ATCC): 45.8%; GI% (786–0; 10 μM one-dose, Table 1): — (GI value > 70%); inhibition at 10 µM (786–0): 67.1%; GI% (SF-539; 10 μM one-dose, Table 1): — (GI value > 70%); inhibition at 10 µM (SF-539): 54.8%; inhibition at 10 µM (PC-3): 32.3%; inhibition at 10 µM (OVCAR-3): 16.1%; GI% (K-562; 10 μM one-dose, Table 1): — (GI value > 70%); inhibition at 10 µM (K-562): 18.5%; inhibition at 10 µM (BT-549): 32%
CN1CCN(c2nc(SCc3ccc([N+](=O)[O-])cc3)nc(-c3ccc(F)cc3)c2C#N)CC1 [4k, 4-(4-Fluorophenyl)-6-(4-methylpiperazin-1-yl)-2-((4-nitrobenzyl)thio)pyrimidine-5-carbonitrile] | 12.4 | < 10 | < 10 | < 10 | < 10 | 17.6 | 29.3 | 16.4 | 18.4 | < 10 | 18.7 | < 10 | < 10 | 20.9 | 17.5 | < 10 | < 10 | < 10 | 25.1 | 14.4 | inhibition at 10 µM (MDA-MB-231/ATCC): 35.1%; inhibition at 10 µM (786–0): 26.4%; inhibition at 10 µM (SF-539): 41%; inhibition at 10 µM (PC-3): 25.9%; inhibition at 10 µM (OVCAR-3): < 10%; inhibition at 10 µM (K-562): 23.3%; inhibition at 10 µM (BT-549): 46.5%

Source: article PMC10620772, “Design, synthesis, and biological evaluation of new pyrimidine-5-carbonitrile derivatives as novel anti-cancer, dual EGFR^WT/COX-2 inhibitors with docking studies” (RSC Advances, 2023)
